Experimental findings from ChEMBL document CHEMBL1134810, “G-quadruplex DNA binding by a series of carbocyanine dyes” (Bioorg Med Chem Lett, 2001) are described below.

By inhibition is commonly meant the percentage by which the read-out fell short of the control. Read a high inhibition as a response far below the control.

In experiment [1] the target is DNA polymerase I, thermostable (Thermus aquaticus) (UniProt P19821). The experiment is described as follows: G4'-DNA binding-dependent Taq polymerase pausing is the ratio of pause/full bands at 20 uM carbocyanine concentration relative to control; expressed as Normalized ratio of G4'-DNA stop product.
Experiment [2] has the same target. The experiment is described as follows: Taq polymerase inhibition at […] concentration. Conditions: 20 uM.
Experiment [3] concerns the target Telomerase reverse transcriptase (Homo sapiens) (UniProt O14746). The experiment is described as follows: Inhibition of human telomerase activity in S100 HeLa cell extract at […] carbocyanine concentration. Type of experiment: cell-free.

SMILES strings stand for the structures. A value given as a limit tells only on which side of the number the result lay.

Chain of DNA polymerase I, thermostable (Thermus aquaticus) (P19821 whole entry): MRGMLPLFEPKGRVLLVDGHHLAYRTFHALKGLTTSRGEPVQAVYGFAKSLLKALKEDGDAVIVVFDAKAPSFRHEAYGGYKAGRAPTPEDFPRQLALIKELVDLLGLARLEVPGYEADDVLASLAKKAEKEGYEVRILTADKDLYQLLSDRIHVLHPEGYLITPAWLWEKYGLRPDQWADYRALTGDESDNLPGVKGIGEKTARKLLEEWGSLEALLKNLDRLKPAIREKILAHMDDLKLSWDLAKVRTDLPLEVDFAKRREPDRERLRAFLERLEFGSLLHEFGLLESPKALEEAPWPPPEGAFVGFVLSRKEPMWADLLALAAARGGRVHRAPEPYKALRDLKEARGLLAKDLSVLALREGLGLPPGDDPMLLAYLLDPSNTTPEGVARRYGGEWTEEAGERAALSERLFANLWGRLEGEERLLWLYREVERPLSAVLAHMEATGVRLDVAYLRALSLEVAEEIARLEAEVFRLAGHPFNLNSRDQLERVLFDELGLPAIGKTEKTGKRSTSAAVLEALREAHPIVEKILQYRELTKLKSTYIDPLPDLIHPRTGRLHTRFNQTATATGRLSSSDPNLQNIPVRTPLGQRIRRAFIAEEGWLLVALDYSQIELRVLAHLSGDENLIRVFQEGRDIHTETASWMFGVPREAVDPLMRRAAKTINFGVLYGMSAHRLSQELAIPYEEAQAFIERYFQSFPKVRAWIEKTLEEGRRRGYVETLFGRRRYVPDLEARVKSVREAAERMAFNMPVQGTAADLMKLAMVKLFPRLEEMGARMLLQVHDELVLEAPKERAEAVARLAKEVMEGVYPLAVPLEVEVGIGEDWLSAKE
Chain of Telomerase reverse transcriptase (Homo sapiens) (O14746 whole entry): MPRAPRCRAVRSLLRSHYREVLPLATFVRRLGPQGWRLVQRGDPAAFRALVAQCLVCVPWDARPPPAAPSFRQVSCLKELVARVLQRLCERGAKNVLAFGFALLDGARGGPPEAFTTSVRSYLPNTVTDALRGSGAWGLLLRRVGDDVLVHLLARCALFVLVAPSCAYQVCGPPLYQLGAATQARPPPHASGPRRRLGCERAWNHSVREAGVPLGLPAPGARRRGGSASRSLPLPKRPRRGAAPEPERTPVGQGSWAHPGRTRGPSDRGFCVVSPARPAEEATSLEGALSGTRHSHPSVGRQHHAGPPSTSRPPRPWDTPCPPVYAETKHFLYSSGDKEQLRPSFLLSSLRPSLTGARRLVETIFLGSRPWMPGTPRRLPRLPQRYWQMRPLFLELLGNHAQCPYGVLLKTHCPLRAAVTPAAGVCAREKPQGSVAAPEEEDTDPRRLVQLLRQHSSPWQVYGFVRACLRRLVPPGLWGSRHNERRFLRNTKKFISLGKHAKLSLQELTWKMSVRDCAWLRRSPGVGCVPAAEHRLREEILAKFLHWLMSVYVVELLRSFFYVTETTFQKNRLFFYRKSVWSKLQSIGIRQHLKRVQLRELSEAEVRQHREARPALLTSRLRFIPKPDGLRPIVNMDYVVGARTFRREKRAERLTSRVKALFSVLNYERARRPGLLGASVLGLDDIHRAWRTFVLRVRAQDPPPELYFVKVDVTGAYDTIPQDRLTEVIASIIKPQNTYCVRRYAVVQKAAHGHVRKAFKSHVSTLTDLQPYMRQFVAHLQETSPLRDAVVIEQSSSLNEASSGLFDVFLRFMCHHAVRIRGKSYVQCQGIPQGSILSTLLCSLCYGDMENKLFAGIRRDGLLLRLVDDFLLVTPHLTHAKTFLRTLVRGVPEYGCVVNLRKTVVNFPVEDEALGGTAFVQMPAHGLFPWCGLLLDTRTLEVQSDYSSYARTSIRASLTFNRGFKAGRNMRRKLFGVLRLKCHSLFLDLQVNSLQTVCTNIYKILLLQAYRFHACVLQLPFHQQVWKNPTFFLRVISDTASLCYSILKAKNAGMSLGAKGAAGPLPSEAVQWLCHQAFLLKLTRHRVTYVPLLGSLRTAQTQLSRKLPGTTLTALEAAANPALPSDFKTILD

For `CCN1/C(=C/C=C/c2sc3ccccc3[n+]2CC)Sc2ccccc21`, the Activity in experiment [1] was determined as 4.4. Moreover, the inhibition in experiment [2] worked out at 14%; in experiment [3] it was 35%.
As for `CCN1C(=CC=CC=Cc2sc3ccccc3[n+]2CC)Sc2ccccc21`, the inhibition in experiment [2] is 91%; in experiment [3], less than 10%.
On to `CCN1/C(=C/C=C/C=C/C=C/c2sc3ccccc3[n+]2CC)Sc2ccccc21`, for which the Activity in experiment [1] was 1.1. Also, the inhibition is 1.1% in experiment [2] and less than 10% in experiment [3].
Consider `CCN1/C(=C/C=C/c2oc3ccccc3[n+]2CC)Oc2ccccc21`, for which the Activity in experiment [1] amounted to 0.9. Further, the inhibition in experiment [2] is 15%; in experiment [3], less than 10%.
Regarding `CCN1/C(=C/C=C/C=C/c2oc3ccccc3[n+]2CC)Oc2ccccc21`, the Activity in experiment [1] is 1.6. Moreover, the inhibition is 27% in experiment [2] and less than 10% in experiment [3].
